Laboratory results taken from paper PMC11432405, “Development of Novel Alaninamide Derivatives with Anticonvulsant Activity and Favorable Safety Profiles in Animal Models” (International Journal of Molecular Sciences, 2024).
Read-outs that look alike come from different tables or passages of the source.

What was measured:
[1] = tested on: maximal electroshock (MES) seizures; experiment: maximal electroshock seizure (MES) test; format: in vivo, mice; details: mice i.p.; for responders at 100 mg/kg / ED50: Mus musculus, ip; for ED50: TPE 0.5 h, 95% confidence interval in parentheses
Text: Epilepsy is a multifaceted disorder with often unclear etiology, making it challenging to pinpoint a specific receptor or transporter as the definitive target. Consequently, the discovery of ASMs deviates from the traditional drug development pathway, which typically involves designing a new molecule, docking it with a specific biological target, and performing chemical synthesis, followed by in vitro assays. Instead, numerous animal seizure models, which mirror various types of human epileptic seizures, are initially employed in the process of new ASM discovery. This approach has been instrumental in the identification and introduction into clinical practice of all currently used ASMs and continues to be a cornerstone in the preclinical development of new anticonvulsants. The primary justification for prioritizing in vivo screening over in vitro binding and functional studies is the complex and often not fully elucidated mechanisms of action of known ASMs. This approach also facilitates the discovery of compounds with novel, previously undefined pharmacodynamic properties. In light of this, we evaluated all compounds obtained in the current studies using the MES test, which remains one of the most valuable preclinical screening models for tonic-clonic seizures, as well as partial convulsions with or without secondary generalization in humans. This test allows for a comprehensive assessment of the anticonvulsant efficacy of new ASM candidates and is considered highly relevant for predicting their therapeutic efficacy in human epilepsy. The MES test was carried out in mice following the intraperitoneal (i.p.) administration of a screening dose of 100 mg/kg in a group consisting of four animals. The efficacy of the compounds synthesized was evaluated at 0.5 h pretreatment time.
Fresh solutions were prepared daily for each experimentation session.
Each group consisted of six animals.

6 Hz (32 mA) seizures [2] = experiment: 6 Hz (32 mA) psychomotor seizure model; details: for protection (efficacy) in the 6 Hz (32 mA) screening / 6 Hz (32 mA) test: number of mice protected / number of mice tested: mice i.p.; for protection (efficacy) in the 6 Hz (32 mA) screening: 100 mg/kg, four mice; for protection (efficacy) in the 6 Hz (32 mA) screening / ED50 / responders at 100 mg/kg: 0.5 h; for 6 Hz (32 mA) test: number of mice protected / number of mice tested: dose of 100 mg/kg, pretreatment time 0.5 h; for ED50 / responders at 100 mg/kg: Mus musculus, ip; for ED50: read-out: ED50 6 Hz (32 mA), mice i.p., TPE 0.5 h, 95% confidence interval in parentheses; for responders at 100 mg/kg: read-out: protection (efficacy) in the 6 Hz (32 mA) screening;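 as to all read-outs here: adult male albino Swiss CD-1 mice, each used once, with compounds suspended in 1% Tween 80 in water as vehicle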
human recombinant MAO-B = target: T1, human recombinant MAO-B (Homo sapiens, UniProt P27338); experiment: fluorometric monoamine oxidase B inhibition assay; format: biochemical; details: for % inhibition MAO-B (1 µM): mean of two independent experiments; for inhibition at 1 µM: read-out: % inhibition MAO-B (1 µM), mean of two independent experiments
T1 construct: purchased Sigma Aldrich
T1 sequence (P27338 1-520): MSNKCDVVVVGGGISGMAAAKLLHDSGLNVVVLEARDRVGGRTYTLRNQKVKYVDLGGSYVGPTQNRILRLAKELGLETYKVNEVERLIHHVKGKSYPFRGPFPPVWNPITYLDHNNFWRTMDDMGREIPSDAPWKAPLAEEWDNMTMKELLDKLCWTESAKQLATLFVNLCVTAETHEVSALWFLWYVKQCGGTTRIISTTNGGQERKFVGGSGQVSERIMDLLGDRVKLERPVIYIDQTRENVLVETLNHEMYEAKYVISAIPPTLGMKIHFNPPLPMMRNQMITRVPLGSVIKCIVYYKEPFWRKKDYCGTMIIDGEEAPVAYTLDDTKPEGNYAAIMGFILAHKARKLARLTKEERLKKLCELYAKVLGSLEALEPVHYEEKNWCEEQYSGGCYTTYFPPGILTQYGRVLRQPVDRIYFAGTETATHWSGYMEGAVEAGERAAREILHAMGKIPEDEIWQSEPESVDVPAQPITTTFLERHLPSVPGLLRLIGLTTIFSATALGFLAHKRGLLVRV

[3] = rotarod test (acute neurological toxicity, motor coordination); format: in vivo; details: male, CD-1 (albino Swiss), mouse, in vivo, ip, mice i.p.
Procedure: The protective indexes (PIs) were then calculated as the ratio of TD50 to ED50 (PI = TD50/ED50), providing an assessment of the therapeutic window for each compound.

6 Hz (44 mA) seizures = details: cited from earlier work
6 Hz (32 mA) seizures [4] = details: cited from earlier work
[5] = tested on: maximal electroshock (MES) seizures; details: cited from earlier work
[6] = dose of 100 mg/kg, pretreatment time 0.5 h
[7] = 100 mg/kg, 0.5 h, four mice, read-out: protection (efficacy) in the MES screening
[8] = dose of 100 mg/kg, pretreatment time 0.5 h, read-out: MES test: number of mice protected / number of mice tested (converted)

Structure (SMILES)	melting point [°C]	responders at 100 mg/kg [1, 7] [%]	responders at 100 mg/kg [1, 8] [%]	responders at 100 mg/kg (6 Hz (32 mA) seizures [2]) [%]	inhibition at 1 µM (human recombinant MAO-B) [%]	further results
CC(C(=O)NCc1ccc(OCc2ccccc2F)cc1)N1C(=O)CCC1=O (stereo not drawn) [Compound 6, 2-(2,5-dioxopyrrolidin-1-yl)-N-(4-((2-fluorobenzyl)oxy)benzyl)propanamide]	–	–	–	–	–	protection (efficacy) in the MES screening ([1]; 100 mg/kg, 0.5 h, four mice): 100%; MES test: number of mice protected / number of mice tested [1, 6]: 4/4; protection (efficacy) in the 6 Hz (32 mA) screening (6 Hz (32 mA) seizures [2]): 100%; 6 Hz (32 mA) test: number of mice protected / number of mice tested (6 Hz (32 mA) seizures [2]): 4/4; % inhibition MAO-B (1 µM) (human recombinant MAO-B): 0%
CC(C(=O)NCc1ccc(OCc2ccc(F)cc2)cc1)N1C(=O)CCC1=O (stereo not drawn) [Compound 8, 2-(2,5-dioxopyrrolidin-1-yl)-N-(4-((4-fluorobenzyl)oxy)benzyl)propanamide]	–	–	–	–	–	protection (efficacy) in the MES screening ([1]; 100 mg/kg, 0.5 h, four mice): 50%; protection (efficacy) in the 6 Hz (32 mA) screening (6 Hz (32 mA) seizures [2]): 50%; % inhibition MAO-B (1 µM) (human recombinant MAO-B): 0%
CC(C(=O)NCc1ccc(OCc2ccc(Cl)cc2)cc1)N1C(=O)CCC1=O (stereo not drawn) [Compound 11, N-(4-((4-chlorobenzyl)oxy)benzyl)-2-(2,5-dioxopyrrolidin-1-yl)propanamide]	–	–	–	–	–	protection (efficacy) in the MES screening ([1]; 100 mg/kg, 0.5 h, four mice): ≤ 25%; MES test: number of mice protected / number of mice tested [1, 6]: 0/4; protection (efficacy) in the 6 Hz (32 mA) screening (6 Hz (32 mA) seizures [2]): 25%; 6 Hz (32 mA) test: number of mice protected / number of mice tested (6 Hz (32 mA) seizures [2]): 1/4; % inhibition MAO-B (1 µM) (human recombinant MAO-B): 0%
CC(C(=O)NCc1ccc(OCc2ccccc2C(F)(F)F)cc1)N1C(=O)CCC1=O (stereo not drawn) [Compound 12, 2-(2,5-dioxopyrrolidin-1-yl)-N-(4-((2-(trifluoromethyl)benzyl)oxy)benzyl)propanamide]	122.9 to 123.4	100	100	75	0	ED50 [1]: 46.2 mg/kg; ED50 (6 Hz (32 mA) seizures [2]): 52.7 mg/kg; TD50 at 0.5 h [3]: > 300 mg/kg
CC(C(=O)NCc1ccc(OCc2cccc(C(F)(F)F)c2)cc1)N1C(=O)CCC1=O (stereo not drawn) [Compound 13, 2-(2,5-dioxopyrrolidin-1-yl)-N-(4-((3-(trifluoromethyl)benzyl)oxy)benzyl)propanamide]	–	100	100	100	0	ED50 [1]: 69.7 mg/kg; ED50 (6 Hz (32 mA) seizures [2]): 67.9 mg/kg; TD50 at 0.5 h [3]: > 300 mg/kg
CC(C(=O)NCc1ccc(OCc2ccc(C(F)(F)F)cc2)cc1)N1C(=O)CCC1=O (stereo not drawn) [Compound 14, 2-(2,5-dioxopyrrolidin-1-yl)-N-(4-((4-(trifluoromethyl)benzyl)oxy)benzyl)propanamide]	–	50	50	50	0	–
CC(C(=O)NCc1ccc(OCc2ccccc2OC(F)(F)F)cc1)N1C(=O)CCC1=O (stereo not drawn) [Compound 15, 2-(2,5-dioxopyrrolidin-1-yl)-N-(4-((2-(trifluoromethoxy)benzyl)oxy)benzyl)propanamide]	110.5 to 111.2	50	50	25	0	–
CC(C(=O)NCc1ccc(OCc2cccc(OC(F)(F)F)c2)cc1)N1C(=O)CCC1=O (stereo not drawn) [Compound 16, 2-(2,5-dioxopyrrolidin-1-yl)-N-(4-((3-(trifluoromethoxy)benzyl)oxy)benzyl)propanamide]	112.2 to 112.9	100	100	50	31	ED50 [1]: 40.5 mg/kg; ED50 (6 Hz (32 mA) seizures [2]): 63 mg/kg; TD50 at 0.5 h [3]: > 300 mg/kg
Cc1ccccc1COc1ccc(CNC(=O)C(C)N2C(=O)CCC2=O)cc1 (stereo not drawn) [Compound 18, 2-(2,5-dioxopyrrolidin-1-yl)-N-(4-((2-methylbenzyl)oxy)benzyl)propanamide]	126.1 to 126.8	75	75	75	0	ED50 [1]: 89.2 mg/kg; ED50 (6 Hz (32 mA) seizures [2]): 57.7 mg/kg; TD50 at 0.5 h [3]: > 300 mg/kg
Cc1cccc(COc2ccc(CNC(=O)C(C)N3C(=O)CCC3=O)cc2)c1 (stereo not drawn) [Compound 19, 2-(2,5-dioxopyrrolidin-1-yl)-N-(4-((3-methylbenzyl)oxy)benzyl)propanamide]	–	≤ 25	25	25	0	–
Cc1ccc(COc2ccc(CNC(=O)C(C)N3C(=O)CCC3=O)cc2)cc1 (stereo not drawn) [Compound 20, 2-(2,5-dioxopyrrolidin-1-yl)-N-(4-((4-methylbenzyl)oxy)benzyl)propanamide]	–	≤ 25	0	–	0	–
CC(C)(C(=O)NCc1ccc(OCc2ccccc2)cc1)N1C(=O)CCC1=O [Compound 21, N-(4-(benzyloxy)benzyl)-2-(2,5-dioxopyrrolidin-1-yl)-2-methylpropanamide]	170.3 to 171.2	≤ 25	25	–	0	–
CC(C(=O)NCc1cccc(OCc2ccccc2)c1)N1C(=O)CCC1=O (stereo not drawn) [Compound 22, N-(3-(benzyloxy)benzyl)-2-(2,5-dioxopyrrolidin-1-yl)propanamide]	105.3 to 106.1	≤ 25	25	–	0	–
CC(C(=O)NCc1ccccc1OCc1ccccc1)N1C(=O)CCC1=O (stereo not drawn) [Compound 23, N-(2-(benzyloxy)benzyl)-2-(2,5-dioxopyrrolidin-1-yl)propanamide]	–	≤ 25	25	–	0	–
CC(C(=O)NCc1ccc(OCc2ccccc2)cc1)N1CCCC1=O (stereo not drawn) [Compound 36, N-(4-(benzyloxy)benzyl)-2-(2-oxopyrrolidin-1-yl)propanamide]	110.5 to 110.9	–	100	25	0	–
CC(C(=O)NCc1ccc(OCc2ccccc2C(F)(F)F)cc1)N1CCCC1=O (stereo not drawn) [Compound 37, 2-(2-oxopyrrolidin-1-yl)-N-(4-((2-(trifluoromethyl)benzyl)oxy)benzyl)propanamide]	121.8 to 122.5	–	100	50	0	–
CC(C(=O)NCc1ccc(OCc2cccc(C(F)(F)F)c2)cc1)N1CCCC1=O (stereo not drawn) [Compound 38, 2-(2-oxopyrrolidin-1-yl)-N-(4-((3-(trifluoromethyl)benzyl)oxy)benzyl)propanamide]	123.5 to 123.8	–	100	75	2	ED50 [1]: 54.8 mg/kg; ED50 (6 Hz (32 mA) seizures [2]): 65.3 mg/kg; TD50 at 0.5 h [3]: > 300 mg/kg
COC[C@@H](NC(C)=O)C(=O)NCc1ccccc1 [LCS, lacosamide]	–	–	–	–	–	PI (TD50/ED50) 6 Hz (44 mA) (6 Hz (44 mA) seizures; TD50 rotarod / ED50 6 Hz (44 mA)): 6.7; ED50 6 Hz (44 mA) (6 Hz (44 mA) seizures; mice i.p., TPE 0.5 h (LEV 1.0 h)): 6.9 (5.4–8.6) mg/kg; PI (TD50/ED50) 6 Hz (6 Hz (32 mA) seizures [4]; TD50 rotarod / ED50 6 Hz (32 mA)): 8.8; ED50 6 Hz (32 mA) (6 Hz (32 mA) seizures [4]; mouse, in vivo, ip): 5.3 (3.5–7.8) mg/kg; PI (TD50/ED50) MES ([5]; TD50 rotarod / ED50 MES): 5.0; ED50 MES ([5]; mice i.p., TPE 0.5 h (LEV 1.0 h), same conditions): 9.2 (8.5–10.0) mg/kg
C[C@H](NCc1ccc(OCc2cccc(F)c2)cc1)C(N)=O [SAF, safinamide]	–	–	–	–	–	ED50 in the MES model ([5]; mice): 4.1 mg/kg
